Laboratory results: ChEMBL document CHEMBL3046342, “Synthesis of steroidal thiazolidinones as antibacterial agents based on the in vitro and quantum chemistry calculation” (2013)
Values after ≈ are worked out from the molar mass of the structure shown.

Experiments:
Type in all cases: functional
Escherichia coli [1] = assay: Antibacterial activity against Escherichia coli ATCC 49696 assessed as growth inhibition after 18 hr by microbroth dilution method; settings: ATCC 49696, 18 h
Salmonella typhimurium [2] = assay: Antibacterial activity against Salmonella enterica subsp. enterica serovar Typhimurium ATCC 13311 assessed as growth inhibition after 18 hr by microbroth dilution method; settings: ATCC 13311, 18 h
Streptococcus pyogenes [3] = assay: Antibacterial activity against Streptococcus pyogenes ATCC 12384 assessed as growth inhibition after 18 hr by microbroth dilution method; settings: ATCC 12384, 18 h
Staphylococcus aureus [4] = assay: Antibacterial activity against Staphylococcus aureus ATCC 13150 assessed as growth inhibition after 18 hr by microbroth dilution method; settings: ATCC 13150, 18 h
Escherichia coli [5] = assay: Antibacterial activity against Escherichia coli ATCC 49696 assessed as growth inhibition at 30 ug/disk after 18 hr by disk diffusion method; settings: ATCC 49696, 18 h, read-out: IZ
Salmonella typhimurium [6] = assay: Antibacterial activity against Salmonella enterica subsp. enterica serovar Typhimurium ATCC 13311 assessed as growth inhibition at 30 ug/disk after 18 hr by disk diffusion method; settings: ATCC 13311, 18 h, read-out: IZ
Streptococcus pyogenes [7] = assay: Antibacterial activity against Streptococcus pyogenes ATCC 12384 assessed as growth inhibition at 30 ug/disk after 18 hr by disk diffusion method; settings: ATCC 12384, 18 h, read-out: IZ
Staphylococcus aureus [8] = assay: Antibacterial activity against Staphylococcus aureus ATCC 13150 assessed as growth inhibition at 30 ug/disk after 18 hr by disk diffusion method; settings: ATCC 13150, 18 h, read-out: IZ
Escherichia coli [9] = assay: Antibacterial activity against Escherichia coli ATCC 49696 assessed as growth inhibition at 10 to 100 ug/uL after 18 hr by disk diffusion method
Salmonella typhimurium [10] = assay: Antibacterial activity against Salmonella enterica subsp. enterica serovar Typhimurium ATCC 13311 assessed as growth inhibition at 10 to 100 ug/uL after 18 hr by disk diffusion method
Streptococcus pyogenes [11] = assay: Antibacterial activity against Streptococcus pyogenes ATCC 12384 assessed as growth inhibition at 10 to 100 ug/uL after 18 hr by disk diffusion method
Staphylococcus aureus [12] = assay: Antibacterial activity against Staphylococcus aureus ATCC 13150 assessed as growth inhibition at 10 to 100 ug/uL after 18 hr by disk diffusion method

SMILES	MIC (Escherichia coli [1]) [µg/mL]	MIC (Salmonella typhimurium [2]) [µg/mL]	MIC (Streptococcus pyogenes [3]) [µg/mL]	MIC (Staphylococcus aureus [4]) [µg/mL]	zone of inhibition at 30 µg/disc (Escherichia coli [5]) [mm]	zone of inhibition at 30 µg/disc (Salmonella typhimurium [6]) [mm]	zone of inhibition at 30 µg/disc (Streptococcus pyogenes [7]) [mm]	zone of inhibition at 30 µg/disc (Staphylococcus aureus [8]) [mm]	inhibition zone (IZ) (Escherichia coli [9]) [mm]	inhibition zone (IZ) (Salmonella typhimurium [10]) [mm]	inhibition zone (IZ) (Streptococcus pyogenes [11]) [mm]	inhibition zone (IZ) (Staphylococcus aureus [12]) [mm]
CC1(C)S[C@@H]2[C@H](NC(=O)[C@H](N)c3ccc(O)cc3)C(=O)N2[C@H]1C(=O)O [AMOXICILLIN]	32 (≈ 87.6 µM)	32 (≈ 87.6 µM)	32 (≈ 87.6 µM)	32 (≈ 87.6 µM)	20	17.2	18.2	17	–	–	–	–
CC(C)CCC[C@@H](C)[C@H]1CC[C@H]2[C@@H]3C/C(=N\N=C4/SCC(=O)N4C4CCCCC4)C4C[C@@H](Cl)CC[C@]4(C)[C@H]3CC[C@]12C (some centres undefined)	32 (≈ 51.9 µM)	32 (≈ 51.9 µM)	32 (≈ 51.9 µM)	64 (≈ 104 µM)	–	–	–	–	22.8	19.6	21.7	20.6
CC(=O)O[C@H]1CC[C@@]2(C)C(C1)/C(=N/NC(=S)NC1CCCCC1)C[C@H]1[C@@H]3CC[C@H]([C@H](C)CCCC(C)C)[C@@]3(C)CC[C@@H]12 (some centres undefined)	–	–	–	–	–	–	–	–	13.6	10.6	12.2	11.6
CC(=O)O[C@H]1CC[C@@]2(C)C(C1)/C(=N/N=C1\SCC(=O)N1C1CCCCC1)C[C@H]1[C@@H]3CC[C@H]([C@H](C)CCCC(C)C)[C@@]3(C)CC[C@@H]12 (some centres undefined)	32 (≈ 50 µM)	32 (≈ 50 µM)	64 (≈ 100 µM)	32 (≈ 50 µM)	–	–	–	–	20.8	19.2	21.6	18.8
CC(C)CCC[C@@H](C)[C@H]1CC[C@H]2[C@@H]3C/C(=N\NC(=S)NC4CCCCC4)C4CCCC[C@]4(C)[C@H]3CC[C@]12C (some centres undefined)	–	–	–	–	–	–	–	–	11.6	10.6	9.8	9.6
CC(C)CCC[C@@H](C)[C@H]1CC[C@H]2[C@@H]3C/C(=N\NC(=S)NC4CCCCC4)C4C[C@@H](Cl)CC[C@]4(C)[C@H]3CC[C@]12C (some centres undefined)	–	–	–	–	–	–	–	–	11.4	11.5	10.5	11.2
CC(C)CCC[C@@H](C)[C@H]1CC[C@H]2[C@@H]3C/C(=N\N=C4/SCC(=O)N4C4CCCCC4)C4CCCC[C@]4(C)[C@H]3CC[C@]12C (some centres undefined)	128 (≈ 220 µM)	512 (≈ 880 µM)	128 (≈ 220 µM)	64 (≈ 110 µM)	–	–	–	–	14	13.2	14.2	13.8
